Measurements published in ChEMBL document CHEMBL1201862, “PubChem BioAssay data set” (2004).
Calls of active or inactive are those of the source.

Experiments:
Assay type in all cases: functional
[1] = (§1) Counterscreen for antagonists of the orexin 1 receptor (OX1R; HCRTR1): Fluorescence-based cell-based high throughput dose response assay to identify antagonists of the parental CHO cell line. [Related pubchem assays (depositor defined):AID434989, AID435008, AID463079, AID485270, AID492963, AID492964, AID492965, AID493232, AID504699, AID504701]
[2] = biological target: T1, Orexin/Hypocretin receptor type 1 (Homo sapiens, UniProt O43613); test: (§2) Fluorescence-based cell-based high throughput dose response assay for antagonists of the orexin 1 receptor (OX1R; HCRTR1). [Related pubchem assays (depositor defined):AID434989, AID435008, AID463079, AID485270, AID492963, AID492964, AID492965, AID493232, AID504717, AID504718]
T1 sequence (O43613 whole entry): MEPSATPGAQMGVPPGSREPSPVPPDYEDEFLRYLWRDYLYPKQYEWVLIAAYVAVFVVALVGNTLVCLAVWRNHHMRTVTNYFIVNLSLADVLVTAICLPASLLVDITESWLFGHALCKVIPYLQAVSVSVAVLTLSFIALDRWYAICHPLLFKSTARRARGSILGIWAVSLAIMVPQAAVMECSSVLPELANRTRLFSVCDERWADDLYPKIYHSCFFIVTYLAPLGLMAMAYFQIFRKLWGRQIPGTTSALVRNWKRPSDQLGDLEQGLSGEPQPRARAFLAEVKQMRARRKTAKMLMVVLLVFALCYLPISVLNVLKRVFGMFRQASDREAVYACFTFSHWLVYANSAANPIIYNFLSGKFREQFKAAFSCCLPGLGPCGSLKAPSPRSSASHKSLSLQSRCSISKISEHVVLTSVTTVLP

[3] = system: CHO-K1; test: as §1, with “Homogeneous time resolved fluorescence (HTRF)-based” for “Fluorescence-based”, “cell-based” for “cell-based high throughput”, “CHO-K1” for “CHO”; conditions: Cricetulus griseus;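 further: potency for inhibition of ATP-stimulated IP1 production as antagonists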
[4] = biological target: T1, Orexin/Hypocretin receptor type 1; test: as §2, with “Homogeneous Time Resolved Fluorescence (HTRF)-based” for “Fluorescence-based”
[5] = biological target: T2, Orexin receptor type 2 (Homo sapiens, UniProt O43614); test: Counterscreen assay for antagonists of the orexin 1 receptor (OX1R; HCRTR1): Fluorescence-based cell-based dose response assay for antagonists of the orexin 2 receptor (OX2R; HCRTR2), run by assay provider.
T2 sequence (O43614 whole entry): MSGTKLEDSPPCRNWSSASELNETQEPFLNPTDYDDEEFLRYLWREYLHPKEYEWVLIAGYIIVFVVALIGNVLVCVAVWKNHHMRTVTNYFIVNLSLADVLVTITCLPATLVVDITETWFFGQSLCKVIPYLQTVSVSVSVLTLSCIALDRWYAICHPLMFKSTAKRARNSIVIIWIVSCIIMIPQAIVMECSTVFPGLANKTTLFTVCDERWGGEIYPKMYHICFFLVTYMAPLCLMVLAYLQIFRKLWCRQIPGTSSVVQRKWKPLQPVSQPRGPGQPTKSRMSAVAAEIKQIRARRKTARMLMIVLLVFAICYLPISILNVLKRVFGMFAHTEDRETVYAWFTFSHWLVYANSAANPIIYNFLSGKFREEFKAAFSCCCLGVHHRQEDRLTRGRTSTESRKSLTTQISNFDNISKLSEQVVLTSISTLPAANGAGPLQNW

[6] = biological target: T2, Orexin receptor type 2; test: Counterscreen assay for antagonists of the orexin 1 receptor (OX1R; HCRTR1): Homogeneous Time Resolved Fluorescence (HTRF)-based cell-based dose response assay for antagonists of the orexin 2 receptor (OX2R; HCRTR2), run by assay provider.
[7] = growth suppression of PTEN-null colon cells, dose response, cell-based, HCT116 PTEN knockout (AID 1047);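 further: HCT116 colon tumor cells with PTEN knocked out; cells exposed to compound for 60 hours before readout; potency for loss of cell viability measured by luminescence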
[8] = growth suppression of beta-catenin-knockout colon cells, dose response, cell-based, HCT116, human colon tumor (AID 1045);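 further: HCT116 colon tumor cells with beta catenin knocked out; cells exposed to compound for 60 hours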
[9] = biological target: 26S proteasome non-ATPase regulatory subunit 14 (Homo sapiens, UniProt O00487); test: inhibition of proteasome subunit RPN11 – biochemical, fluorescence polarization, uHTS hits, confirmation (AID 602368)
[10] = biological target: 72 kDa type IV collagenase (Homo sapiens, UniProt P08253); test: Dose Response validation of uHTS RPN11 inhibitor hits using a MMP-2 Fluorescence assay.
[11] = biological target: Prothrombin (Bos taurus, UniProt P00735); test: thrombin inhibition, dose response, biochemical, fluorescence polarization, uHTS hits (AID 602369)
[12] = Luminescence Cell-Based Dose Confirmation HTS to Identify Activators of 5'UTR Stem-Loop Driven Alpha-Synuclein mRNA Translation in H4 Neuroglioblastoma Cells. [Related pubchem assays: 1829 (Project Summary), 1814 (Primary HTS)]
[13] = microbe, parasite or virus in culture; conditions: Mycobacterium tuberculosis
[14] = system: H4; test: Luminescence Cell-Based Dose Response HTS to Identify Activators of 5'UTR Stem-Loop Driven Prion Protein mRNA Translation in H4 Neuroglioblastoma Cells. [Related pubchem assays: 1829 (Project Summary), 1814 (Primary HTS)]; conditions: Homo sapiens
[15] = Luminescence Cell-Based Dose Response HTS to Identify Activators of Luciferase Translation or Activity in H4 […] Cells. [Related pubchem assays: 1829 (Project Summary), 1814 (Primary HTS)]

26S proteasome non-ATPase regulatory subunit 14, sequence (O00487 whole entry): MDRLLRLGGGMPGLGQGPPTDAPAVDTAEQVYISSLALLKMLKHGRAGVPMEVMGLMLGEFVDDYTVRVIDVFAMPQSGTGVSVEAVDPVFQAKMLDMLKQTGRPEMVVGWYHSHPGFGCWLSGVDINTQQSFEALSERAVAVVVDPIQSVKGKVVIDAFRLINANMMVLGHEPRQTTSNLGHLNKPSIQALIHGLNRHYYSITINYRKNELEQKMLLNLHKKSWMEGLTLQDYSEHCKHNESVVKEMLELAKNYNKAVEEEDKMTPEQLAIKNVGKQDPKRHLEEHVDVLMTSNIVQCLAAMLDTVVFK
72 kDa type IV collagenase, sequence (P08253 whole entry): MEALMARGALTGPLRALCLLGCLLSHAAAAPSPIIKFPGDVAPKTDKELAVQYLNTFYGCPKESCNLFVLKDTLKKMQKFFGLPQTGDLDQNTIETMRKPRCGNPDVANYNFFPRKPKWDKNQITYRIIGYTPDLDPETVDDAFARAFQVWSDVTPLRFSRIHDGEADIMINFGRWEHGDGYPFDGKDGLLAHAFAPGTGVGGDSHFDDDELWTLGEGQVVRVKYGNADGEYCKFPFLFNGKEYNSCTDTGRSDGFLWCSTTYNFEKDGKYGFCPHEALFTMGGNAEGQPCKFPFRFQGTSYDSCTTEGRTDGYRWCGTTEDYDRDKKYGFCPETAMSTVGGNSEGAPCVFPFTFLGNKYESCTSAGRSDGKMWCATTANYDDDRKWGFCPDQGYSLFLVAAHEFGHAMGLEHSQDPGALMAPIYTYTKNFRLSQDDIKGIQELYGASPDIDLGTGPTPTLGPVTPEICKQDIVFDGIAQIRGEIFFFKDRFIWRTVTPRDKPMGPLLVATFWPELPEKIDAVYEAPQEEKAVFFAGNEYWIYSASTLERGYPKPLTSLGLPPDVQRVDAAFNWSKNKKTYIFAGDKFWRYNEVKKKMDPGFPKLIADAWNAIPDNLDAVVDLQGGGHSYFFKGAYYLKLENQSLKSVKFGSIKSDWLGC

SMILES: Cc1noc(C)c1S(=O)(=O)Nc1ccc(O)c2c(=O)cc(-c3ccccc3Cl)oc12
- IC50 [1]: > 49.7 µM (inactive)
- IC50 [2]: 23.6 µM (inactive)
- IC50 [3]: > 66.2 µM (inactive)
- IC50 [4]: 151 nM (active)
- IC50 [5]: 16.8 µM (inactive)
- IC50 [6]: 5.63 µM (active)

SMILES: CC(NS(=O)(=O)c1ccc(OCC(=O)Nc2cccc([N+](=O)[O-])c2)cc1)c1ccccc1 (configuration not stated)
- IC50 [1]: > 49.8 µM (inactive)
- EC50 [7]: 18.4 µM (active)
- IC50 [2]: 13.6 µM (inactive)
- IC50 [3]: > 66.2 µM (inactive)
- IC50 [4]: 688 nM (active)
- IC50 [5]: > 88.8 µM (inactive)
- IC50 [6]: > 50 µM (inactive)
- EC50 [8]: 18.2 µM (active)

SMILES: CCn1c2ccccc2c2nc3ccccc3nc21
- IC50 [1]: > 49.8 µM (inactive)
- IC50 [2]: 6.2 µM (active)
- IC50 [3]: > 66.3 µM (inactive)
- IC50 [4]: 914 nM (active)
- IC50 [5]: 35.2 µM (inactive)
- IC50 [6]: 6.65 µM (active)

SMILES: C(=N\NC1=Nc2cccc3cccc1c23)/c1cccnc1
- IC50 [9]: 11.9 µM (active)
- IC50 [10]: > 100 µM (inactive)
- IC50 [11]: 14 µM (active)
- EC50 [12]: 128 nM (active)
- CC50 [13]: > 40 µM (active)
- EC50 [14]: > 120 µM (not active)
- EC50 [15]: 2.39 µM (active)
